From US9656017B2, “Infusion delivery devices and methods” (priority 2014, dated 2017)
No end group written: not given here.

Key:
[1] = tested on: test animals; details: treated test animals; e.g. marked hyperlactemia followed by hyperglycemia; cited from earlier work
[2] = T1D patients, same immunometric assay (FIG. 1-D); cited from earlier work
[3] = 24-hour plasma profiles of endogenous insulin and amylin in healthy adults, basal/bolus AUC analysis; assay type: in vivo, human; details: for In Vivo AUC pM × 24 hr / AUC: endogenous; for In Vivo AUC pM × 24 hr: molar; for AUC: human, in vivo, In Vivo AUC μg/L × 24 hr, corrected for molecular weight
From the text: This difference in bolus/basal ratios was quantified by estimating the AUCs of the basal and bolus components, which would reflect the 24-hour hormone exposures attributable to these components.
Comparing AUCs results in the discovery that there is a striking difference between hormones with respect to the importance of bolus exposure compared to basal exposure, as summarized in Table 1. […] See the example in Table 1.
Either this is background amylin expression which been reported in non-beta-cell tissues, or it is nonspecific background noise in the amylin assay. […] The same adjustment should also be made for any background insulin plasma levels.
The following calculations are presented as an example of how appropriate amylin agonist doses can be determined. This insulin-dependent dosing can be achieved by calculating two separate components of pramlintide dosing: (1) the weight ratio of the daily basal component of amylin-to-insulin; and (2) the weight ratio of the daily bolus component of amylin-to-insulin.

[4] = Post-injection plasma pramlintide levels for three subcutaneous doses compared with healthy plasma amylin profile; assay type: in vivo, human
From the text: How well do the recommended mealtime injections of pramlintide mimic the healthy plasma amylin profile? […] In the case of three meals per day, these doses would result in three large boluses of pramlintide that spike well above the levels of plasma amylin measured in healthy adults. FIG. 3 superimposes plasma levels of the three subcutaneous doses of pramlintide (FIG. 2) on the plasma amylin profile in healthy adults (FIG. 1).
From an efficacy standpoint, the dose limiting effect of nausea caused by pramlintide plasma spikes reduces daily drug exposure below healthy plasma amylin exposure levels. Daily exposure to endogenous hormone and infused drug can be measured by calculating the areas under the curves (AUCs) in FIG. 3.

[5] = ex vivo gram AUC (bioavailability adjusted)
[6] = in vivo gram AUC (molecular weight adjusted)
[7] = plasma, healthy adults, based upon AUCs

Pro28-h-amylin (KCNTATCATQRLANFLVHSSNNFGAILPSTNVGSNTY; ends and bridges not checked; cysteine pairing not given here; UniProt P10997 34-70, looked up, variant S28P) [amylin analogue]
amylin activity in vivo [1]: show amylin activity in vivo

CC[C@H](C)[C@H](NC(=O)[C@H](C)NC(=O)CNC(=O)[C@H](Cc1ccccc1)NC(=O)[C@H](CC(N)=O)NC(=O)[C@H](CC(N)=O)NC(=O)[C@H](CO)NC(=O)[C@H](CO)NC(=O)[C@H](Cc1c[nH]cn1)NC(=O)[C@@H](NC(=O)[C@H](CC(C)C)NC(=O)[C@H](Cc1ccccc1)NC(=O)[C@H](CC(N)=O)NC(=O)[C@H](C)NC(=O)[C@H](CC(C)C)NC(=O)[C@H](CCCNC(=N)N)NC(=O)[C@H](CCC(N)=O)NC(=O)[C@@H](NC(=O)[C@H](C)NC(=O)[C@@H]1CSSC[C@H](NC(=O)[C@@H](N)CCCCN)C(=O)N[C@@H](CC(N)=O)C(=O)N[C@@H]([C@@H](C)O)C(=O)N[C@@H](C)C(=O)N[C@@H]([C@@H](C)O)C(=O)N1)[C@@H](C)O)C(C)C)C(=O)N[C@@H](CC(C)C)C(=O)N[C@@H](CO)C(=O)N[C@@H](CO)C(=O)N[C@H](C(=O)N[C@@H](CC(N)=O)C(=O)N[C@H](C(=O)NCC(=O)N[C@@H](CO)C(=O)N[C@@H](CC(N)=O)C(=O)N[C@H](C(=O)N[C@@H](Cc1ccc(O)cc1)C(N)=O)[C@@H](C)O)C(C)C)[C@@H](C)O [Amylin]
plasma amylin, average [2]: 1.6 pM
In Vivo AUC pM × 24 hr ([3]; basal component): 222.79 pM × 24 hr
In Vivo AUC pM × 24 hr ([3]; bolus component): 135.19 pM × 24 hr
Basal Amylin/Insulin Ratio [3, 5]: 14.8%
Bolus Amylin/Insulin Ratio [3, 5]: 4.8%
plasma levels as % of insulin levels ([3]; healthy adults, FIG. 8): less than 5%
AUC ([3]; basal component): 0.88 ng·h/mL
AUC ([3]; bolus component): 0.534 ng·h/mL
Basal Amylin/Insulin Ratio [3, 6]: 7.4%
Bolus Amylin/Insulin Ratio [3, 6]: 2.4%
Basal Amylin/Insulin Ratio ([3]; in vivo molar AUC): 10.9%
Bolus Amylin/Insulin Ratio ([3]; in vivo molar AUC): 3.5%
Basal as % Total [3, 7]: 62%
Bolus/Basal Ratio [3, 7]: 0.6

Arg18 Pro25 Pro28-h-amylin
amylin activity in vivo [1]: show amylin activity in vivo

des-Lys1-h-amylin
amylin activity in vivo [1]: show amylin activity in vivo

Arg18 Pro25 Pro 28-des-Lys1-h-amylin
amylin activity in vivo [1]: show amylin activity in vivo

Pro25 Val26 Pro 28 Pro29-h-amylin
amylin activity in vivo [1]: show amylin activity in vivo

CC[C@H](C)[C@H](NC(=O)[C@@H]1CCCN1C(=O)CNC(=O)[C@H](Cc1ccccc1)NC(=O)[C@H](CC(N)=O)NC(=O)[C@H](CC(N)=O)NC(=O)[C@H](CO)NC(=O)[C@H](CO)NC(=O)[C@H](Cc1c[nH]cn1)NC(=O)[C@@H](NC(=O)[C@H](CC(C)C)NC(=O)[C@H](Cc1ccccc1)NC(=O)[C@H](CC(N)=O)NC(=O)[C@H](C)NC(=O)[C@H](CC(C)C)NC(=O)[C@H](CCCNC(=N)N)NC(=O)[C@H](CCC(N)=O)NC(=O)[C@@H](NC(=O)[C@H](C)NC(=O)[C@@H]1CSSC[C@H](NC(=O)[C@@H](N)CCCCN)C(=O)N[C@@H](CC(N)=O)C(=O)N[C@@H]([C@@H](C)O)C(=O)N[C@@H](C)C(=O)N[C@@H]([C@@H](C)O)C(=O)N1)[C@@H](C)O)C(C)C)C(=O)N[C@@H](CC(C)C)C(=O)N1CCC[C@H]1C(=O)N1CCC[C@H]1C(=O)N[C@H](C(=O)N[C@@H](CC(N)=O)C(=O)N[C@H](C(=O)NCC(=O)N[C@@H](CO)C(=O)N[C@@H](CC(N)=O)C(=O)N[C@H](C(=O)N[C@@H](Cc1ccc(O)cc1)C(N)=O)[C@@H](C)O)C(C)C)[C@@H](C)O [pramlintide, 25,28,29Pro-h-amylin]
24-hour exposure (relative AUC, endogenous amylin = 100%) ([4]; 90 μg dose, three meals per day (FIG. 4)): achieves the healthy, 24-hour physiological exposure
plasma levels relative to plasma amylin in healthy adults ([4]; T1D patients, mealtime SC doses three times daily (FIG. 3)): supra-physiological (or pharmacological) plasma levels
amylin activity in vivo [1]: show amylin activity in vivo
